Assay results: patent US7723301B2, “Pharmaceutical compositions comprising an anti-teratogenic compound and applications of the same” (The Board of Trustees of the University of Arkansas, priority 2007, dated 2010)

Key:
chicken embryos = test: Inhibitors counteracting thalidomide-induced limb truncations and microphthalmia in chicken embryos; format: in vivo
Method: Fertilized eggs were purchased from Deindl GmbH, Rietberg-Varensell. They were incubated at 38° C. in a humidified incubator, windowed after one day and staged according to Hamburger and Hamilton (HH stage). Racemic thalidomide (Celgene), thalidomide enantiomers or phthalimide (Sigma) were dissolved in DMSO at 5 mg/ml and further diluted in PBS. Embryos were exposed to drugs by dropping 15 μg-3 mg thalidomide or phthalimide per kg egg weight (about 1-200 μg per embryo) in 50 μl DMSO/PBS as a single dose at HH stages 0-13 onto the embryo. Thalidomide (50 μg) or phthalimide (50 μg) in 10 μl DMSO was injected into the extra-embryonic blood vessels of HH 19 stage embryos. LiCl (99% pure, Sigma) was dissolved in sterile PBS. LiCl (0.1, 0.6 or 3.2 mg) was applied at HH stages 17-19 by dropping 500 μl of a 5 mM, 28 mM or 151 mM LiCl solution onto the embryo. Recombinant Noggin, Dkk1 specific goat IgG (R&D Systems) or serum of non-immunized goats (Sigma) was dissolved in 0.1% BSA/0.01% Fast Green/PBS. Noggin (10 or 100 ng), Dkk1 specific goat IgG (5 or 50 ng) or serum of non-immunized goats (50 ng) was applied to a single embryo at HH stages 17-19 by injecting a 10 μl solution through the extra-embryonic membranes.
The morphology of the limbs was studied in specimens fixed in 5% trichloroacetic acid and stained for cartilage with alcian green as described (3).

[1] = test system: Dkk1 and Bmp expression in limb buds; test: sqRT-PCR and whole mount in situ hybridization of Dkk1 and Bmp expression in limb buds; format: in vivo, chicken
Method: (§1) RNA isolation, semi-quantitative RT-PCRs and whole mount in situ hybridizations were performed according to standard protocols that are well known within the art. RNA was isolated using TRIZOL (Gibco BRL) followed by DNAseI digestion. First strand synthesis was carried out with the Expand RT System (Roche) according to the manufacturer's instructions. PCR amplification was carried out primers and conditions within the knowledge of a person having skill in the relevant art. Quantifications were performed using NIH Image 1.62.

[2] = test system: limb buds of HH stages 23/24 chicken embryos; test: Whole mount TUNEL staining of limb buds; format: in vivo
Method: TUNEL staining was performed as described (7).

[3] = test system: primary chicken embryonic fibroblasts (CEFs); test: Cell death by trypan blue staining in CEFs; format: cell-based; settings: 38.7 μM (10 μg/ml), six hours
Method: (§2) Primary limb bud cells (PLBCs) were isolated from 60 pooled wing and hindlimb buds of HH stages 23/24 embryos. Fibroblasts were gained from HH stage 34 chicken embryos or from 13.5 d.p.c. mouse embryos. Human embryonic fibroblasts were provided by Matthias Maass (2). Before adding reagents, all cell types were cultured for 16 hours in D-MEM (Gibco) plus 10% fetal calf serum (FCS) and 2% chicken serum. Treatment with thalidomide, phthalimide, recombinant human (rh) BMP4 (300 ng/ml; R&D Systems), juglone (5 μM; Sigma), recombinant mouse Noggin (30, 300, 1000 ng/ml in FIG. 4B; 300 ng/ml in FIGS. 4C and 6A), anti-human-DKK1 antibody (35, 350 and 1000 ng/ml in FIG. 4B; 350 ng/ml in FIGS. 4C and 6A), LiCl (3, 30, 60 mM in FIG. 4B; 30 mM in FIGS. 4C, 6A and 6C) and/or (2Z,3E)-6-Bromoindirubin-3-oxime (BIO, Gsk3-Inhibitor IX; 50, 500, 1000 nM in FIG. 4B; 500 nM in FIG. 6A; 50 and 500 nM in FIG. 6C; Calbiochem) were performed in Optimem1 (Invitrogen) plus 1% FCS. Unless otherwise noted, all treatments with thalidomide and rh-BMP4 and associated controls were done for six hours. Inhibitors were applied once at the beginning of incubation with the exception of LiCl that was added 150 minutes before harvesting the cells for further analyses. Pre-treatment with phenyl-N-t-butylnitrone (PBN; 2 mM; Sigma) was performed for one hour. Incubations with juglone were performed for two hours, if applicable, after a pre-treatment with PBN, Noggin, anti-Dkk1 antibody, LiCl or Gsk3-Inhibitor IX for one hour.
(§3) Cell death in PLBCs, CEFs, MEFs and HEFs was detected by staining with trypan blue (0.1% (w/v) in PBS; Sigma) for 90 seconds. Cells were counted in a counting chamber to determine the ratio of dead to live cells.

[4] = test system: primary embryonic fibroblasts of mice (MEFs); test: Cell death by trypan blue staining in MEFs; format: cell-based, mouse
Method: as §2, with “Inhibitors were applied once at the beginning of incubation with the exception of LiCl that was added 150 minutes before harvesting the cells for further analyses. Pre-treatment with phenyl-N-t-butylnitrone (PBN; 2 mM; Sigma) was performed for one hour. Incubations with juglone were performed for two hours, if applicable, after a pre-treatment with PBN, Noggin, anti-Dkk1 antibody, LiCl or Gsk3-Inhibitor IX for one hour.” left out
as §3

[5] = test system: Bmp4 and Dkk1 expression in HEFs; test: sqRT-PCR of Bmp4 and Dkk1 expression in HEFs; format: cell-based, human; settings: 10 μg/ml, six hours
Method: as §2, §1

β-catenin = test: Sub-cellular localization of β-catenin in HEFs; format: cell-based, human; settings: in the presence of Wnt3a; about 70% with Wnt3a alone
Method: CEFs or HEFs attached on cover slips were incubated with Wnt3a-conditioned medium including thalidomide or solvent or with control medium for five hours. β-catenin was detected by using a mouse anti-β-catenin antibody (1:500, BD Transduction Laboratories), an anti-mouse Cy3-coupled secondary antibody (Dianova) and fluorescence microscopy. Afterwards, a DAPI staining was performed as a control. Quantification was done by counting the nuclei with a clear fluorescent signal in relation to the number of DAPI-stained nuclei.

O=C1CCC(N2C(=O)c3ccccc3C2=O)C(=O)N1 (racemic) [thalidomide, 2-(2,6-dioxo-3-piperidyl)isoindole-1,3-dione]
embryos with limb truncations, thalidomide-treated control embryos (chicken embryos; control of the anti-Dkk1 antibody experiment (FIG. 7B)): 15% | embryos with microphthalmia, thalidomide-treated control embryos (chicken embryos; in vivo): 23% | embryos with limb truncations, thalidomide treatment (chicken embryos; survived to day seven (FIG. 7A)): 19% | expression level of Bmp2 in limb buds (sqRT-PCR) ([1]; HH stages 23/24 embryos): not significantly affected | expression of Bmp4, Bmp5 and Bmp7 in limb buds (sqRT-PCR) ([1]; HH stages 23/24 embryos): clearly up-regulated | Dkk1 expression in limb buds (sqRT-PCR) ([1]; HH stages 23/24 embryos, in comparison to controls): dramatically enhanced | limb buds with Bmp4 expression dramatically up-regulated (whole mount in situ hybridization) ([1]; HH stages 23/24 embryos, AER, ANZ and PNZ): 20 of 36 | limb buds with Dkk1 expression clearly enhanced (whole mount in situ hybridization) ([1]; HH stages 23/24 embryos, AER, underlying mesenchyme and ANZ): 19 of 64 | limb buds with enhanced Bmp expression and PCD ([1]; in vivo): 55% | limb buds with increased Dkk1 expression ([1]; in vivo): 30% | limb buds with enlarged ANZ (whole mount TUNEL staining) ([2]; HH stages 23/24 embryos): 22 of 40 | individual limb buds with enhanced PCD (TUNEL) ([2]; chicken, in vivo): 53% | induction of PCD in CEFs compared to controls [3]: six-fold | induction of cell death in MEFs ([4]; 38.7 μM (10 μg/ml), six hours): did not induce cell death | induction of cell death in MEFs with longer incubation times and concentrations up to 100 μg/ml ([4]; up to 100 μg/ml, data not shown): did not significantly induce cell death above controls | expression of Bmp4 and Dkk1 in HEFs [5]: induced the expression | HEFs positive for nuclear β-catenin (β-catenin): 10%
